We go through 6 compounds from paper PMC7291858, “An Enhanced Variant Designed From DLP4 Cationic Peptide Against Staphylococcus aureus CVCC 546” (Frontiers in Microbiology, 2020).

Assay [1] relates to S. aureus ATCC 43300. The class given is cell-based, Staphylococcus aureus. The settings on record: microtiter, serial 2-fold dilutions, 37°C, 16∼20 h, triplicate; – = no activity. The protocol:
(§1) The minimal inhibitory concentration (MIC) was evaluated by a microtiter plate assay ([Wiegand et al., 2008]). Serial 2-fold dilutions of test peptides were placed into a 96-well plate containing identical bacterial inoculum and incubated at 37°C for 16∼20 h. Vancomycin was used as antibiotic control. The MIC value was defined as the lowest peptide concentration where no visible growth occurred. All tests were made in triplicate.

In assay [2] the test system is Staphylococcus aureus CVCC 546. Kind of assay: microbe, parasite or virus in culture. The class given is cell-based. The settings on record: Table 1; – = no activity. The procedure:
as §1

Peptide text beside a SMILES is read from it.

For the compound `CC[C@H](C)[C@@H]1NC(=O)[C@@H]2CSSC[C@@H](C(=O)N[C@@H](CCCNC(=N)N)C(=O)N[C@@H](CCCCN)C(=O)O)NC(=O)[C@H](CC(N)=O)NC(=O)[C@@H]3CSSC[C@H](NC(=O)[C@H](C)NC(=O)[C@H](C)NC(=O)[C@H](Cc4c[nH]cn4)NC(=O)CNC(=O)[C@H](C(C)C)NC(=O)[C@H](CCCCN)NC(=O)[C@H](Cc4ccccc4)NC(=O)[C@@H]4CCCN4C(=O)[C@H](CO)NC(=O)[C@H](CC(C)C)NC(=O)[C@H](CC(C)C)NC(=O)[C@H](CC(=O)O)NC(=O)[C@@H](NC(=O)[C@@H](NC(=O)[C@H](C)N)[C@@H](C)O)CSSC[C@H](NC(=O)[C@H](Cc4c[nH]c5ccccc45)NC(=O)CNC(=O)CNC(=O)[C@H](CCCNC(=N)N)NC(=O)[C@H](CCCCN)NC(=O)CNC(=O)[C@H](CCCNC(=N)N)NC(=O)[C@H](C)NC1=O)C(=O)N[C@@H](CC(=O)O)C(=O)N[C@@H](CCCCN)C(=O)N[C@@H](CCCNC(=N)N)C(=O)N[C@@H](C)C(=O)N[C@@H](C(C)C)C(=O)N3)C(=O)N[C@@H](C)C(=O)N[C@@H](C(C)C)C(=O)N[C@@H](Cc1c[nH]cn1)C(=O)N2` [ID28] (HELM PEPTIDE1{A.T.C.D.L.L.S.P.F.K.V.G.H.A.A.C.A.V.H.C.I.A.R.G.K.R.G.G.W.C.D.K.R.A.V.C.N.C.R.K}$PEPTIDE1,PEPTIDE1,3:R3-30:R3|PEPTIDE1,PEPTIDE1,16:R3-36:R3|PEPTIDE1,PEPTIDE1,20:R3-38:R3$$$V2.0; N-terminus and C-terminus assumed; bridges inferred), the “A1 (MIC against S. aureus ATCC 43300)” value in assay [1] worked out at 8 µg/mL. The same compound yielded an MIC in assay [2] of 16.

Regarding `CC[C@H](C)[C@@H]1NC(=O)[C@H](C)NC(=O)[C@H](CCCNC(=N)N)NC(=O)[C@H](CCCCN)NC(=O)[C@H](CC(=O)O)NC(=O)[C@@H]2CSSC[C@H](NC(=O)[C@@H](NC(=O)[C@H](C)N)[C@@H](C)O)C(=O)N[C@@H](CC(=O)O)C(=O)N[C@@H](CC(C)C)C(=O)N[C@@H](CC(C)C)C(=O)N[C@@H](CO)C(=O)N3CCC[C@H]3C(=O)N[C@@H](Cc3ccccc3)C(=O)N[C@@H](CCCCN)C(=O)N[C@@H](C(C)C)C(=O)NCC(=O)N[C@@H](Cc3c[nH]cn3)C(=O)N[C@@H](C)C(=O)N[C@@H](C)C(=O)N[C@H]3CSSC[C@H](NC1=O)C(=O)N[C@@H](CC(N)=O)C(=O)N[C@H](C(=O)N[C@@H](CCCNC(=N)N)C(=O)N[C@@H](CCCCN)C(=O)O)CSSC[C@H](NC(=O)[C@H](Cc1c[nH]cn1)NC(=O)[C@H](C)NC(=O)[C@H](C)NC3=O)C(=O)N[C@@H]([C@@H](C)CC)C(=O)N[C@@H](C)C(=O)N[C@@H](CCCNC(=N)N)C(=O)NCC(=O)N[C@@H](CCCCN)C(=O)N[C@@H](CCCNC(=N)N)C(=O)NCC(=O)NCC(=O)N[C@@H](Cc1c[nH]c3ccccc13)C(=O)N2` [ID30] (HELM PEPTIDE1{A.T.C.D.L.L.S.P.F.K.V.G.H.A.A.C.A.A.H.C.I.A.R.G.K.R.G.G.W.C.D.K.R.A.I.C.N.C.R.K}$PEPTIDE1,PEPTIDE1,3:R3-30:R3|PEPTIDE1,PEPTIDE1,16:R3-36:R3|PEPTIDE1,PEPTIDE1,20:R3-38:R3$$$V2.0; N-terminus and C-terminus assumed; bridges inferred), in assay [1], the “A1 (MIC against S. aureus ATCC 43300)” value was 16 µg/mL. For the same compound, the MIC in assay [2] turned out to be 32.

For `CC(C)C[C@@H]1NC(=O)[C@@H]2CSSC[C@@H](C(=O)N[C@@H](CCCNC(=N)N)C(=O)N[C@@H](CCCCN)C(=O)O)NC(=O)[C@H](CC(N)=O)NC(=O)[C@@H]3CSSC[C@H](NC(=O)[C@H](C)NC(=O)[C@H](C)NC(=O)[C@H](Cc4c[nH]cn4)NC(=O)CNC(=O)[C@H](C(C)C)NC(=O)[C@H](CCCCN)NC(=O)[C@H](Cc4ccccc4)NC(=O)[C@@H]4CCCN4C(=O)[C@H](CO)NC(=O)[C@H](CC(C)C)NC(=O)[C@H](CC(C)C)NC(=O)[C@H](CC(=O)O)NC(=O)[C@@H](NC(=O)[C@@H](NC(=O)[C@H](C)N)[C@@H](C)O)CSSC[C@H](NC(=O)[C@H](Cc4c[nH]c5ccccc45)NC(=O)CNC(=O)CNC(=O)[C@H](CCCNC(=N)N)NC(=O)[C@H](CCCCN)NC(=O)CNC(=O)[C@H](CCCNC(=N)N)NC(=O)[C@H](C)NC1=O)C(=O)N[C@@H](CC(=O)O)C(=O)N[C@@H](CCCCN)C(=O)N[C@@H](CCCNC(=N)N)C(=O)N[C@@H](C)C(=O)N[C@@H](C(C)C)C(=O)N3)C(=O)N[C@@H](C)C(=O)N[C@@H](C)C(=O)N[C@@H](Cc1c[nH]cn1)C(=O)N2` [ID29] (HELM PEPTIDE1{A.T.C.D.L.L.S.P.F.K.V.G.H.A.A.C.A.A.H.C.L.A.R.G.K.R.G.G.W.C.D.K.R.A.V.C.N.C.R.K}$PEPTIDE1,PEPTIDE1,3:R3-30:R3|PEPTIDE1,PEPTIDE1,16:R3-36:R3|PEPTIDE1,PEPTIDE1,20:R3-38:R3$$$V2.0; N-terminus and C-terminus assumed; bridges inferred), the “A1 (MIC against S. aureus ATCC 43300)” value in assay [1] worked out at 64 µg/mL. The compound further returned an MIC in assay [2] of 128.

On to `CC[C@H](C)[C@@H]1NC(=O)[C@@H]2CSSC[C@@H](C(=O)N[C@@H](CCCNC(=N)N)C(=O)N[C@@H](CCCCN)C(=O)O)NC(=O)[C@H](CC(N)=O)NC(=O)[C@@H]3CSSC[C@H](NC(=O)[C@H](C)NC(=O)[C@H](C)NC(=O)[C@H](Cc4c[nH]cn4)NC(=O)CNC(=O)[C@H](C(C)C)NC(=O)[C@H](CCCCN)NC(=O)[C@H](Cc4ccccc4)NC(=O)[C@@H]4CCCN4C(=O)[C@H]([C@@H](C)O)NC(=O)[C@H](CC(C)C)NC(=O)[C@H](CC(C)C)NC(=O)[C@H](CC(=O)O)NC(=O)[C@@H](NC(=O)[C@@H](NC(=O)[C@H](C)N)[C@@H](C)O)CSSC[C@H](NC(=O)[C@H](Cc4c[nH]c5ccccc45)NC(=O)CNC(=O)CNC(=O)[C@H](CCCNC(=N)N)NC(=O)[C@H](CCCCN)NC(=O)CNC(=O)[C@H](CCCNC(=N)N)NC(=O)[C@H](C)NC1=O)C(=O)N[C@@H](CC(=O)O)C(=O)N[C@@H](CCCCN)C(=O)N[C@@H](CCCNC(=N)N)C(=O)N[C@@H](C)C(=O)N[C@@H](C(C)C)C(=O)N3)C(=O)N[C@@H](C)C(=O)N[C@@H](C)C(=O)N[C@@H](Cc1c[nH]cn1)C(=O)N2` [ID6] (HELM PEPTIDE1{A.T.C.D.L.L.T.P.F.K.V.G.H.A.A.C.A.A.H.C.I.A.R.G.K.R.G.G.W.C.D.K.R.A.V.C.N.C.R.K}$PEPTIDE1,PEPTIDE1,3:R3-30:R3|PEPTIDE1,PEPTIDE1,16:R3-36:R3|PEPTIDE1,PEPTIDE1,20:R3-38:R3$$$V2.0; N-terminus and C-terminus assumed; bridges inferred), for which, in assay [1], the “A1 (MIC against S. aureus ATCC 43300)” value was determined as 8 µg/mL. The compound also yielded an MIC in assay [2] of 16.

Turning to `CC[C@H](C)[C@@H]1NC(=O)[C@@H]2CSSC[C@@H](C(=O)N[C@@H](CCCNC(=N)N)C(=O)N[C@@H](CCCCN)C(=O)O)NC(=O)[C@H](CC(N)=O)NC(=O)[C@@H]3CSSC[C@H](NC(=O)[C@H](C)NC(=O)[C@H](C)NC(=O)[C@H](Cc4c[nH]cn4)NC(=O)CNC(=O)[C@H](C(C)C)NC(=O)CNC(=O)[C@H](Cc4ccccc4)NC(=O)[C@@H]4CCCN4C(=O)[C@H](CO)NC(=O)[C@H](CC(C)C)NC(=O)[C@H](CC(C)C)NC(=O)[C@H](CC(=O)O)NC(=O)[C@@H](NC(=O)[C@@H](NC(=O)[C@H](C)N)[C@@H](C)O)CSSC[C@H](NC(=O)[C@H](Cc4c[nH]c5ccccc45)NC(=O)CNC(=O)CNC(=O)[C@H](CCCNC(=N)N)NC(=O)[C@H](CCCCN)NC(=O)CNC(=O)[C@H](CCCNC(=N)N)NC(=O)[C@H](C)NC1=O)C(=O)N[C@@H](CC(=O)O)C(=O)NCC(=O)N[C@@H](CCCNC(=N)N)C(=O)N[C@@H](C)C(=O)N[C@@H](C(C)C)C(=O)N3)C(=O)N[C@@H](C)C(=O)N[C@@H](C)C(=O)N[C@@H](Cc1c[nH]cn1)C(=O)N2` [ID16] (HELM PEPTIDE1{A.T.C.D.L.L.S.P.F.G.V.G.H.A.A.C.A.A.H.C.I.A.R.G.K.R.G.G.W.C.D.G.R.A.V.C.N.C.R.K}$PEPTIDE1,PEPTIDE1,3:R3-30:R3|PEPTIDE1,PEPTIDE1,16:R3-36:R3|PEPTIDE1,PEPTIDE1,20:R3-38:R3$$$V2.0; N-terminus and C-terminus assumed; bridges inferred), the “A1 (MIC against S. aureus ATCC 43300)” value in assay [1] worked out at 8 µg/mL. In addition, the MIC in assay [2] was determined as 16.

In the case of `CC[C@H](C)[C@@H]1NC(=O)[C@@H]2CSSC[C@@H](C(=O)N[C@@H](CCCNC(=N)N)C(=O)N[C@@H](CC(N)=O)C(=O)O)NC(=O)[C@H](CC(N)=O)NC(=O)[C@@H]3CSSC[C@H](NC(=O)[C@H](C)NC(=O)[C@H](C)NC(=O)[C@H](Cc4c[nH]cn4)NC(=O)CNC(=O)[C@H](C(C)C)NC(=O)CNC(=O)[C@H](Cc4ccccc4)NC(=O)[C@@H]4CCCN4C(=O)[C@H](CO)NC(=O)[C@H](CC(C)C)NC(=O)[C@H](CC(C)C)NC(=O)[C@H](CC(=O)O)NC(=O)[C@@H](NC(=O)[C@@H](NC(=O)[C@H](C)N)[C@@H](C)O)CSSC[C@H](NC(=O)[C@H](Cc4c[nH]c5ccccc45)NC(=O)CNC(=O)CNC(=O)[C@H](CCCNC(=N)N)NC(=O)[C@H](CCCCN)NC(=O)CNC(=O)[C@H](CCCNC(=N)N)NC(=O)[C@H](C)NC1=O)C(=O)N[C@@H](CC(=O)O)C(=O)N[C@@H](CCCCN)C(=O)N[C@@H](CCCNC(=N)N)C(=O)N[C@@H](C)C(=O)N[C@@H](C(C)C)C(=O)N3)C(=O)N[C@@H](C)C(=O)N[C@@H](C)C(=O)N[C@@H](Cc1c[nH]cn1)C(=O)N2` [ID17] (HELM PEPTIDE1{A.T.C.D.L.L.S.P.F.G.V.G.H.A.A.C.A.A.H.C.I.A.R.G.K.R.G.G.W.C.D.K.R.A.V.C.N.C.R.N}$PEPTIDE1,PEPTIDE1,3:R3-30:R3|PEPTIDE1,PEPTIDE1,16:R3-36:R3|PEPTIDE1,PEPTIDE1,20:R3-38:R3$$$V2.0; N-terminus and C-terminus assumed; bridges inferred), the “A1 (MIC against S. aureus ATCC 43300)” value in assay [1] came to 16 µg/mL. The same compound gave an MIC in assay [2] of 64.
